Data on five molecules can be found in article PMC3036843 (Bioconjugate chemistry, 2010).

One data set deals with L1210FR. Particulars: for differences in IC50 values against the three cell lines: L1210FR, L1210, WI38, at most.
A short description of the next data set: in vitro. Particulars: human, WI38 human lung fibroblast cells.
Another data set concerns L1210. Kind of data set: cells. Particulars: Mus musculus, L1210, 72 h, read-out: Cytotoxicities (IC50), L1210.
The next data set relates to L1210FR cells. Kind of data set: Internalization of biotin-FITC probe 2 by CFM and flow cytometry. It counts as cell-based, murine. Particulars: 100 nM. In general terms: A flow cytometer gives signals particle by particle.
For data set [1] the following is noted: taxoid released from first-generation mAb-taxoid DDS; cited from earlier work.

Take SB-T-1214-fluorescein [compound 24]: the “differences in IC50 values against the three cell lines” value in the data set on L1210FR is “less than 45%”. Besides, in the data set with L1210FR (against L1210FR), the “times less potent than the parent SB-T-1214” value is “ca. 9 times”.

On to `CC(=O)O[C@@]12CO[C@@H]1C[C@H](O)[C@@]1(C)C(=O)[C@H](OC(=O)C3CC3)C3=C(C)[C@@H](OC(=O)[C@H](O)[C@H](C=C(C)C)NC(=O)OC(C)(C)C)C[C@@](O)([C@@H](OC(=O)c4ccccc4)[C@H]21)C3(C)C` [SB-T-1214], for which the “times more potent than paclitaxel” value in the data set on L1210FR (against L1210FR) is recorded as “ca. 13 times”.

Regarding `CC(=O)O[C@H]1C(=O)[C@@]2(C)[C@H]([C@H](OC(=O)c3ccccc3)[C@]3(O)C[C@H](OC(=O)[C@H](O)[C@@H](NC(=O)c4ccccc4)c4ccccc4)C(C)=C1C3(C)C)[C@]1(OC(C)=O)CO[C@@H]1C[C@@H]2O` [paclitaxel, reference compound], in the data set “in vitro”, the IC50 at 72 h is 0.157 µM. In addition, the IC50 in the data set with L1210 was found to be 0.151 µM; with L1210FR (mouse, 72 h), 0.121 µM. Further, the “differences in IC50 values against the three cell lines” value with L1210FR is on record as “less than 45%”.

Consider biotin-FITC [compound 2], for which the “diminished fluorescence in the cells at 4 °C” value in the data set with L1210FR cells (4 °C, 3 h versus 37 °C, by flow cytometry) is listed as “ca. 6 times”. In addition, the “internalization into L1210FR cells (CFM)” value in the data set on L1210FR cells (37 °C, 3 h) was “efficient internalization”. The “decrease in fluorescence after pre-incubation with excess free biotin” value in the data set with L1210FR cells (37 °C, 3 h, biotin 2 mM pre-incubated 1 h) is given as “ca. 4.5 times”. Further, the “decrease in fluorescence inside the cells in the presence of NaN3” value in the data set with L1210FR cells (3 h, 37 °C, 0.05 % (w/v) NaN3) was “ca. 4 times”.

Take SB-T-12136-SH: the “cytotoxicity, times weaker than the parent taxoid (SB-T-1213)” value in data set [1] was 8 times.

What is called IC50 is the concentration that inhibits the measured activity by half.
